This is an account of results in paper PMC11050087, “Polyphenols from Maackia amurensis Heartwood Protect Neuronal Cells from Oxidative Stress and Prevent Herpetic Infection” (International Journal of Molecular Sciences, 2024).

Series [1] has as its system HSV-1. Kind of series: Virucidal activity, CPE inhibition assay (HSV-1 pretreated with compounds). The class given is cell-based, HSV-1 strain L2. The settings on record: for IC50: Human alphaherpesvirus 1, virus pretreated with compound (virucidal), CPE assay, Vero cells, 100 TCID50/mL; for SI: ratio of CC50 to IC50, virucidal scheme. Here is the method: The antiviral activity of polyphenols from M. amurensis against HSV-1 was assessed using the cytopathic effect inhibition (CPE) assay. To study the inhibitory effect of polyphenolic compounds directly on the HSV-1 virus (direct virucidal activity), the monolayer of Vero cells grown on 96-well plates (1 × 10^4 cells/well) was infected with the virus (100 TCD50/mL), pretreated with different concentrations of polyphenolic compounds.
(§1) The HSV-1 strain L2 obtained from N.F. Gamaleya Federal Research Centre for Epidemiology and Microbiology (Moscow, Russia) was grown in Vero cells as previously described.
(§2) We determined the direct inhibitory effect of polyphenolic compounds from M. amurensis heartwood on HSV-1 (virucidal effect). We mixed the virus at an infectious dose (100 TCID50/mL) with polyphenolic compounds (from 0.1 to 100 µg/mL) at a ratio of 1:1 (v/v) and incubated for an hour at 37 °C. Then, we infected the monolayer of Vero cells grown on 96-well plates (1 × 10^4 cells/well) with HSV-1 pretreated with the studied compounds. After 1 h adsorption at 37 °C, the cells were washed with phosphate-buffered saline (PBS) and overlaid by the maintenance medium with 1% FBS. The plates were incubated for 72 h at 37 °C in a CO2-incubator. The cytopathic effect (CPE) inhibition assay and real-time reverse transcription-PCR (RT-PCR) assay were used to evaluate virucidal effect of the tested compounds.
We previously described this method in detail in [22]. We performed the MTT assay to evaluate the antiviral activity of polyphenolic compounds. The viral inhibition rate (IR, %) was calculated according to Equation (1):(1) IR, %=Atv−Acv/Acd−Acv×100, where Atv is the absorbance of cells infected with HSV-1 pretreated with the studied compounds,
We calculated the selectivity index (SI) as the ratio of CC50 to IC50. Experiments were repeated three times.

The nature of series [2]: Cytotoxicity against Vero cells (MTT assay). The settings on record: African green monkey. The class given is cell-based. As for the experimental part:
We prepared the stock solutions of the tested compounds (10 mg/mL) in DMSO (Sigma, St. Louis, MO, USA). For the MTT assay and further studies of anti-HSV-1 activity, we diluted the stock solutions with DMEM so that the final concentration of DMSO was 0.5%.
We used MTT assay to determine the cytotoxic effect of the tested compounds against Vero cells. We performed the MTT assay as previously described.
On the technique in general: Tetrazolium dyes change colour on reduction, which living cells bring about.

Series [3] has as its system 6-OHDA-treated Neuro-2a cells. Kind of series: 6-OHDA-induced neurotoxicity model, cell viability test (MTT). The settings on record: compounds at 10, 1, 0.1 µM; 6-OHDA 100 µM. In kind it is cell-based, murine. Here is the method: Neuro-2a cells were incubated with the studied polyphenolic compounds for 1 h. Then, 100 µM of 6-hydroxydopamine 6-OHDA were added. We determined the percentage of living Neuro-2a cells after treatment with 6-OHDA (Figure 4a–d).
Figure 4 The effect of polyphenolic compounds isolated from M. amurensis heartwood on the viability of Neuro-2a cells treated with 6-OHDA (100 μM) (a–d). The viability of Neuro-2a cells treated with various compounds and 6-OHDA was measured by the MTT assay. Polyphenolic compounds isolated from M. amurensis heartwood were used at concentrations 10, 1, 0.1 μM. The data are presented as means ± SEM of three independent replicates. (*) indicate p < 0.05 versus 6-OHDA-treated cells.
After 24 h of adhesion, Neuro-2a cells (5 × 10^4 cells/mL) were treated with polyphenolic compounds at concentrations of 0.1, 1 and 10 μM for 1 h. Then, 100 µM of 6-OHDA or 1 mM of PQ (Sigma-Aldrich, St. Louis, MO, USA) were added. Cells incubated without inductors or with inductors were used as positive and negative control, respectively. Cell viability was measured after 24 h using the MTT assay.

The subject of series [4] is HSV-1. Kind of series: Virucidal activity, RT-PCR assay (HSV-1 pretreated with compounds). In kind it is cell-based, HSV-1 strain L2. The settings on record: for Ct: 72 h; for −ΔCt: vs virus control; for activity at 0.1 µg/mL / activity at 1 µg/mL / activity at 10 µg/mL / log reduction at 0.1 µg/mL / log reduction at 1 µg/mL / log reduction at 10 µg/mL: Human alphaherpesvirus 1, 72 h; for activity at 0.1 µg/mL / activity at 1 µg/mL / activity at 10 µg/mL: read-out: 2^−ΔCt; for log reduction at 0.1 µg/mL / log reduction at 1 µg/mL / log reduction at 10 µg/mL: read-out: log10. Here is the method:
Vero cells grown on 96-well plates were infected with the virus (100 TCID50/mL), pretreated with polyphenolic compounds at concentrations 0.1, 1 and 10 μg/mL. After 72 h of cell incubation, viral DNA was extracted from the supernatants, and the relative level of HSV-1 DNA was determined using RT-PCR. The effect of polyphenols on the relative level of viral DNA was assessed using the 2^−∆Ct method and reported as fold reduction compared to virus control.
as §1, §2
We performed the RT-PCR assay as we previously described in detail in [22]. Briefly, HSV-1 DNA was extracted after incubation from cell supernatants by using the DNA-sorb-AM (K1-12-100-CE) nucleic acid extraction kit (AmpliSens®, Moscow, Russia) according to the manufacturer′s instructions. We treated the supernatants with a lysis solution that contained guanidine chloride (chaotropic agent) in the presence of sorbent (silica particles). As the elution solution was added, the DNA was […] silica particles and separated from the sorbent particles by centrifugation.
We detected the DNA of HSV-1 in the obtained samples using the AmpliSens® HSV I, II-FRT-100F PCR kit (AmpliSens®, Moscow, Russia) on a real-time PCR instrument Rotor-Gene Q (Qiagen, Hilden, Nordrhein-Westfalen, Germany) according to the manufacturer′s instructions. The PCR reaction conditions were the following: initial denaturation at 95 °C for 15 min; then 5 cycles at 95 °C for 5 s, at 60 °C for 20 s, at 72 °C for 15 s; then 40 cycles at 95 °C for 5 s, at 60 °C for 20 s, and at 72 °C for 15 s. A negative sample was used as the amplification control for each run. The threshold cycle number Ct, was measured as the PCR cycle, where the amount of the amplified target reached the threshold value; the Ct values ≥ 37 indicated the absence of the HSV-1 DNA in the samples. We assessed the anti-HSV-1 activity of the studied compounds by the reduction in the viral DNA levels using the 2^−ΔCt method according to Equation (2):(2) ΔCt=Ctcv−Cttv where Ct is the threshold cycle number measured as the PCR cycle, where the amount of the amplified target reached the threshold value, […]

Series [5] has as its system 6-OHDA-treated Neuro-2a cells. Kind of series: ROS analysis in 6-OHDA-treated cells (H2DCF-DA). The settings on record: compound 1 µM; 6-OHDA 120 µM. In kind it is cell-based, murine. As for the experimental part:
We studied the effect of polyphenolic compounds set on ROS levels in 6-OHDA-treated Neuro-2a cells (Figure 5a–d).
Figure 5 The effect of polyphenolic compounds isolated from M. amurensis heartwood on ROS levels in Neuro-2a cells treated with 6-OHDA (120 μM) (a–d). Polyphenolic compounds isolated from M. amurensis heartwood were used at concentrations 10, 1, 0.1 μM. The data are presented as means ± SEM of three independent replicates.
After 24 h of adhesion, Neuro-2a cells (5 × 10^4 cells/mL) were incubated with polyphenolic compounds at concentrations of 0.1, 1, and 10 µM for 1 h. Then, 120 µM of 6-OHDA or 1 mM of PQ were added to each well, and cells were incubated for 1 h. To study the ROS formation, 20 µL of 2,7-dichlorodihydrofluorescein diacetate solution (H2DCF-DA, Sigma-Aldrich, St. Louis, MO, USA) were added to each well, so that the final concentration was 10 µM. Then, the microplate was incubated for 30 min at 37 °C.

Structures are written as SMILES. Where “and” joins values, the source holds several entries; their conditions need not be identical. Equal values may be shown once.

As usually defined, the IC50 is the point on the concentration scale where inhibition reaches its midpoint. By CC50 is commonly meant the concentration giving 50% cytotoxicity. `Oc1ccc2c(c1)OC[C@H]1c3cc4c(cc3O[C@@H]21)OCO4` [Compound 4, maackiain]: in series [1], the IC50 is 28.3 µg/mL and 99.6 µM; the SI was 5.4 and 5.4 ± 0.7. Also, the 50% cytotoxic concentration (CC50) in series [2] was 152 µg/mL and 536 µM. The “effect on viability of 6-OHDA-treated Neuro-2a cells (in words)” value in series [3] is on record as “weak effect on cell viability”. Moreover, in series [4] (0.1 µg/mL), the Ct stood at 18.1 ± 2.2 and the “−ΔCt” value worked out at 0. Moreover, in series [4] (1 µg/mL), the Ct amounted to 19.0 ± 2.1 and the “−ΔCt” value is recorded as −0.9 ± 0.1. Moreover, in series [4] (10 µg/mL), the “anti-HSV-1 activity by RT-PCR (in words)” value is “moderate anti-HSV-1 activity”, the Ct is listed as 20.7 ± 2.3 and the “−ΔCt” value is recorded as −2.6 ± 0.3. Also, in series [4], the activity at 0.1 µg/mL came to 100%, the activity at 1 µg/mL was 53.6 ± 6.4%, the activity at 10 µg/mL came out at 16.5 ± 2.1% and the log reduction at 0.1 µg/mL was 0. Further, in series [4], the log reduction at 1 µg/mL is 0.3 ± 0.04 and the log reduction at 10 µg/mL is 0.8 ± 0.1.
`COc1ccc(-c2coc3c4c(ccc3c2=O)O[C@@H](c2cc(O)cc(O)c2)[C@H](c2ccc(O)c(O)c2)O4)cc1` [Compound 10, maackiazin]: the “reduction of ROS levels in 6-OHDA-treated Neuro-2a cells” value in series [5] stood at 20%. Further, in series [1], the IC50 was 6.6 µg/mL and 12.5 µM; the SI came out at 23.7 ± 3.1. The CC50 in series [2] was 156 µg/mL and 297 µM. Moreover, the “effect on viability of 6-OHDA-treated Neuro-2a cells (in words)” value in series [3] is given as “weak effect on cell viability”. Further, in series [4] (0.1 µg/mL), the Ct turned out to be 18.4 ± 2.4 and the “−ΔCt” value is listed as −0.300 ± 0.03. In series [4] (1 µg/mL), the Ct came out at 20.2 ± 2.6 and the “−ΔCt” value was −2.1 ± 0.3. Besides, in series [4] (10 µg/mL), the “anti-HSV-1 activity by RT-PCR (in words)” value is “significantly reduced the level of viral DNA”, the Ct was determined as 28.0 ± 3.9 and the “−ΔCt” value is listed as −9.9 ± 1.1. In addition, in series [4], the activity at 0.1 µg/mL was determined as 81.2 ± 11%, the activity at 1 µg/mL turned out to be 23.3 ± 3%, the activity at 10 µg/mL worked out at 0.105 ± 0.01% and the log reduction at 0.1 µg/mL stood at 0.09 ± 0.01. In series [4], the log reduction at 1 µg/mL was 0.6 ± 0.08 and the log reduction at 10 µg/mL is 2.9 ± 0.4.
Regarding `COc1ccc([C@H]2COc3cc(O)ccc3[C@@H]2c2c(O)cc(O)cc2/C=C/c2ccc(O)c(O)c2)c(O)c1` [Compound 14, maackiapicevestitol], in series [1], the IC50 was 8.6 µg/mL and 16.7 µM; the SI amounted to 18.9 ± 2.8. Besides, the 50% cytotoxic concentration (CC50) in series [2] was 162 µg/mL and 316 µM. Also, in series [4] (0.1 µg/mL), the Ct was found to be 18.4 ± 2.4 and the “−ΔCt” value is recorded as −0.30 ± 0.03. In addition, in series [4] (1 µg/mL), the Ct worked out at 19.2 ± 2.5 and the “−ΔCt” value is listed as −1.1 ± 0.1. In series [4] (10 µg/mL), the “anti-HSV-1 activity by RT-PCR (in words)” value is given as “significantly reduced the level of viral DNA”, the Ct is 27.1 ± 3.8 and the “−ΔCt” value is on record as −9.0 ± 1.2. In series [4], the activity at 0.1 µg/mL turned out to be 81.2 ± 11%, the activity at 1 µg/mL came out at 46.6 ± 5.6%, the activity at 10 µg/mL is 0.195 ± 0.02% and the log reduction at 0.1 µg/mL is 0.09 ± 0.01. Also, in series [4], the log reduction at 1 µg/mL came to 0.33 ± 0.04 and the log reduction at 10 µg/mL stood at 2.7 ± 0.3.
